Results: patent US20250129021A1, “SMALL MOLECULE PROTEIN SYNTHESIS MODULATORS” (Interdict Bio, Inc., priority 2023, published 2025)
Read-outs that look alike come from different tables or passages of the source.

Experiments:
MYC = test: In vitro transcription-translation (IVTT) assay, MYC reporter; type: biochemical; details: HeLa S3 lysate, 2 hrs at 30° C.
Outline: (§1)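 Reporter: mCherry, P2A, then 3×FLAG-target peptide-sfGFP fusion, IRES-initiated; HeLa S3 lysate IVTT; cpd dilutions 30 μM−0.1 μM half-log in 100% DMSO (dilution-plate conc); DNA added last; 2 h, 30° C; PBS quench.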

CCND1 = test: In vitro transcription-translation (IVTT) assay, CCND1 reporter; type: biochemical; details: HeLa S3 lysate, sfGFP/mCherry ratio
Outline: as §1

MCL-1 = test: In vitro transcription-translation (IVTT) assay, MCL-1 reporter; type: biochemical; details: HeLa S3 lysate, sfGFP/mCherry ratio
Outline: as §1

CCNTB1 = test: In vitro transcription-translation (IVTT) assay, CCNTB1 reporter; type: biochemical; details: HeLa S3 lysate, sfGFP/mCherry ratio
Outline: (§2)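 Cell-free HeLa S3 lysate reactions expressing sfGFP/mCherry reporter constructs ran 2 h at 30 °C with compound from half-log DMSO series (30 μM–0.1 μM as prepared), then were quenched with PBS. No-DNA background was subtracted, and the sfGFP/mCherry ratio was normalized to the no-drug control and fit for IC50.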

cGAS = test: In vitro transcription-translation (IVTT) assay, cGAS reporter; type: biochemical; details: HeLa S3 lysate, sfGFP/mCherry ratio
Method: (§3) In vitro transcription-translation assay setup: Each assay includes a master mix containing lysate and shared components, a 96-well plate containing compound titrations for testing, a 96-well DNA plate with reporter constructs to be tested, 96-well skirted PCR plates, and 96-well flat-bottom, black, fluorescent assay plates. Reaction materials setup: (A) Master mix—15 mL conical tube (3 mL of HeLa S3 Lysate described above; 0.6 mL of ThermoFisher Accessory Proteins (#88882); 1.2 ml of ThermoFisher Reaction Mix (#88882); 0.54 mL of nuclease-free Water); (B) 96-Well Master Mix+Compound Plate (Half-log dilutions (30 μM−0.1 μM) of 4 compounds of interest are prepared in 100% DMSO); 96-Well DNA Plate (Five DNA constructs are plated into single columns within the plate. Row 1 of the column contains nuclease free H2O, all other wells contain 110 ng/μL plasmid DNA). Reactions are started by mixing 155 μL of master mix and 3.5 μL of compound serial dilutions, then 9.1 μL of master mix+compound mixture is aliquoted across 5 96-well plates. Reactions begin with final addition of 2 μL of DNA for a 11.1 μL reaction volume in each well. The entire plate is sealed, and incubated for 2 hrs at 30° C. After 2 hrs, quench the assay using 45 μL of PBS, and transfer 50 μL to a flat-bottom black microplate Quantify the sfGFP and mCherry signals from each well on each plate, taking 3 reads of each plate, and perform data analysis below.
(§4) In vitro transcription-translation assay data analysis: Each plate is read three times in channels for both sfGFP and mCherry signals. The average signal across these 3 reads is then calculated for further analysis. Control wells containing no DNA reporter are subtracted from reporter wells in the same column to remove auto-fluorescence of the lysate. Then, the ratio of sfGFP/mCherry is calculated per well, and these ratios are averaged across the triplicate experiments on the same plate. Finally, the ratio of each titration concentration is normalized to the no drug control to create the normalized stalling metric. The error on this measurement is determined by propagating error through the averaging and normalization steps. Values are plotted and fit for IC50 determination for each test sequence and titration of compound.

STING = test: In vitro transcription-translation (IVTT) assay, STING reporter; type: biochemical; details: HeLa S3 lysate, sfGFP/mCherry ratio
Method: as §3, §4

JAK1 = test: In vitro transcription-translation (IVTT) assay, JAK1 reporter; type: biochemical; details: HeLa S3 lysate, sfGFP/mCherry ratio
Method: as §3, §4

NFKB1 = test: In vitro transcription-translation (IVTT) assay, NFKB1 reporter; type: biochemical; details: HeLa S3 lysate, sfGFP/mCherry ratio
Outline: as §2

BCL-2 = test: In vitro transcription-translation (IVTT) assay, BCL-2 reporter; type: biochemical; details: HeLa S3 lysate, sfGFP/mCherry ratio, 2 hrs at 30° C.
Outline: as §1

HEK 293T = test: Cell viability (CellTiter-Fluor), HEK 293T; type: cell-based; details: Homo sapiens, 24-72 hrs
Method: (§5) Count and dispense 2,000-10,000 cells per well (100 μL volume) in black 96-well tissue culture microplate and let cells adhere overnight. Add compound dissolved in 100% DMSO to each well as needed and incubate cells in standard culture conditions for 24-72 hrs. Final DMSO concentration in each well should be 0.1-0.5%. At the desired time point, gently aspirate compound containing media and replace with PBS to wash. Repeat wash step for 2 total washes. Remove PBS and add 100 μL CellTiter-Fluor reagent (Promega) reagent to each well. Seal plate and incubate 1 hr at room temperature with orbital shaking. Analyze fluorescence using plate reader to quantify viable cells compared with vehicle (DMSO) control.

HPAF-II = test: Cell viability (CellTiter-Fluor), HPAF-II; type: cell-based; details: Homo sapiens, 24-72 hrs
Method: as §5

KLE = test: Cell viability (CellTiter-Fluor), KLE; type: cell-based; details: Homo sapiens, 24-72 hrs
Method: as §5

LS411N = test: Cell viability (CellTiter-Fluor), LS411N; type: cell-based; details: Homo sapiens, LS-411N, 24-72 hrs
Method: as §5

MCF7 = test: Cell viability (CellTiter-Fluor), MCF7; type: cell-based; details: Homo sapiens, 24-72 hrs
Method: as §5

NCI-H1915 = test: Cell viability (CellTiter-Fluor), NCI-H1915; type: cell-based; details: 24-72 hrs
Method: as §5

HEPG2 = test: Cell viability (CellTiter-Fluor), HEPG2; type: cell-based; details: Homo sapiens, 24-72 hrs
Method: as §5

ALK = test: In vitro transcription-translation (IVTT) assay, ALK reporter; type: biochemical; details: HeLa S3 lysate, sfGFP/mCherry ratio, 2 hrs at 30° C.
Outline: as §1

KRAS G12D = test: In vitro transcription-translation (IVTT) assay, KRAS G12D reporter; type: biochemical; details: HeLa S3 lysate, sfGFP/mCherry ratio, 2 hrs at 30° C.
Outline: as §1

[1] = IVTT assay, MYC reporter, normalized sfGFP/mCherry ratio, half-log dilutions 30 μM-0.1 μM
[2] = IVTT assay, read-out: MCL1 IC50

Compound | IC50 (BCL-2) | IC50 (MYC; sfGFP/mCherry ratio) | IC50 (MCL-1; 2 hrs at 30° C.) | IC50 (HEK 293T) | IC50 (HPAF-II) | IC50 (KLE) | IC50 (LS411N) | IC50 (MCF7) | IC50 (NCI-H1915) | IC50 (CCND1; 2 hrs at 30° C.) | further results
O=C(NCc1cccc(C2CNC2)c1)O[C@@H]1[C@@H](O)CN[C@@H]1Cc1ccc(-c2cnco2)cc1 [V192154, (2R,3S,4S)-4-hydroxy-2-{[4-(1,3-oxazol-5-yl)phenyl]methyl}pyrrolidin-3-yl N-{[3-(azetidin-3-yl)phenyl]methyl}carbamate] |  |  |  |  |  |  |  |  |  |  | IC50 (MYC; [1]): < 10 µM; IC50 (CCND1; IVTT assay): < 10 µM; IC50 (MCL-1; [2]): < 10 µM; IC50 (CCNTB1): < 10 µM; IC50 (cGAS): < 10 µM; IC50 (STING): < 10 µM; IC50 (JAK1): < 10 µM; IC50 (NFKB1): < 10 µM
COc1ccc(C[C@H]2NC[C@H](O)[C@H]2OC(=O)NCC[C@@H]2CCNC2)cc1 [V187878, (2R,3S,4S)-4-hydroxy-2-[(4-methoxyphenyl)methyl]pyrrolidin-3-yl N-{2-[(3S)-pyrrolidin-3-yl]ethyl}carbamate] | 10 to 20 µM | < 10 µM | < 10 µM | ≥ 4 µM | ≥ 4 µM | ≥ 4 µM | 1 to 4 µM | 0.25 to 1 µM | ≥ 4 µM |  | IC50 (HEPG2): 1 to 4 µM
COc1ccc(C[C@H]2NC[C@H](O)[C@H]2OC(=O)NC[C@H]2CCNC2)cc1 [V187686, (2R,3S,4S)-4-hydroxy-2-(4-methoxybenzyl)pyrrolidin-3-yl (((S)-pyrrolidin-3-yl)methyl)carbamate] |  | < 10 µM |  | ≥ 4 µM | ≥ 4 µM |  | ≥ 4 µM | 1 to 4 µM | ≥ 4 µM | 10 to 20 µM | IC50 (ALK): < 10 µM; IC50 (KRAS G12D): 10 to 20 µM
O=C(NCc1ccnc(N2CCC2)c1)O[C@@H]1[C@@H](O)CN[C@@H]1Cc1ccc(-c2cnco2)cc1 [V192160, (2R,3S,4S)-4-hydroxy-2-(4-(oxazol-5-yl)benzyl)pyrrolidin-3-yl ((2-(azetidin-1-yl)pyridin-4-yl)methyl)carbamate] |  |  |  |  |  |  |  |  |  |  | IC50 (MYC; [1]): < 10 µM; IC50 (CCND1; IVTT assay): < 10 µM; IC50 (MCL-1; [2]): < 10 µM; IC50 (CCNTB1): < 10 µM; IC50 (cGAS): < 10 µM; IC50 (STING): < 10 µM; IC50 (JAK1): < 10 µM; IC50 (NFKB1): < 10 µM
COc1ccc(C[C@H]2NC[C@H](O)[C@H]2OC(=O)NCc2cc[nH]c(=O)c2)cc1 [V188053, (2R,3S,4S)-4-hydroxy-2-[(4-methoxyphenyl)methyl]pyrrolidin-3-yl N-[(2-oxo-1H-pyridin-4-yl)methyl]carbamate] |  | < 10 µM | < 10 µM | 1 to 4 µM | 1 to 4 µM | 1 to 4 µM | 1 to 4 µM | 1 to 4 µM | 1 to 4 µM | < 10 µM | 
O=C(NCCC1CCNCC1)O[C@@H]1[C@@H](O)CN[C@@H]1Cc1ccc(-c2cnco2)cc1 [V192049, (2R,3S,4S)-4-hydroxy-2-{[4-(1,3-oxazol-5-yl)phenyl]methyl}pyrrolidin-3-yl N-[2-(piperidin-4-yl)ethyl]carbamate] |  |  |  |  |  |  |  |  |  |  | IC50 (MYC; [1]): < 10 µM; IC50 (CCND1; IVTT assay): < 10 µM; IC50 (MCL-1; [2]): < 10 µM; IC50 (CCNTB1): < 10 µM; IC50 (cGAS): < 10 µM; IC50 (STING): < 10 µM; IC50 (JAK1): < 10 µM; IC50 (NFKB1): < 10 µM
COc1ccc(C[C@H]2NC[C@H](O)[C@H]2OC(=O)NC[C@@H]2CCNC2)cc1 [V187685, (2R,3S,4S)-4-hydroxy-2-[(4-methoxyphenyl)methyl]pyrrolidin-3-yl N-[(3R)-pyrrolidin-3-ylmethyl]carbamate] | 10 to 20 µM | < 10 µM | < 10 µM | ≥ 4 µM |  |  |  | 1 to 4 µM |  |  | IC50 (KRAS G12D): 10 to 20 µM
COc1ccc(C[C@H]2NC[C@H](O)[C@H]2OC(=O)NCCc2ccncc2C#N)cc1 [V187940, (2R,3S,4S)-4-hydroxy-2-[(4-methoxyphenyl)methyl]pyrrolidin-3-yl N-[2-(3-cyanopyridin-4-yl)ethyl]carbamate] | < 10 µM | < 10 µM | < 10 µM | 0.25 to 1 µM |  |  |  | 1 to 4 µM |  | < 10 µM | 
COc1ccc(C[C@H]2NC[C@H](O)[C@H]2OC(=O)NCc2ccnnc2)cc1 [V187917, (2R,3S,4S)-4-hydroxy-2-[(4-methoxyphenyl)methyl]pyrrolidin-3-yl N-(pyridazin-4-ylmethyl)carbamate] | < 10 µM | < 10 µM | < 10 µM | < 0.25 µM | 1 to 4 µM | 0.25 to 1 µM | 0.25 to 1 µM | 0.25 to 1 µM | 0.25 to 1 µM | < 10 µM | IC50 (HEPG2): 1 to 4 µM
COc1ccc(C[C@H]2NC[C@H](O)[C@H]2OC(=O)NCCNc2nccs2)cc1 [V187826, (2R,3S,4S)-4-hydroxy-2-[(4-methoxyphenyl)methyl]pyrrolidin-3-yl N-[2-(1,3-thiazol-2-ylamino)ethyl]carbamate] | 20 to 30 µM | < 10 µM | 10 to 20 µM | 1 to 4 µM |  |  |  | 1 to 4 µM |  | 20 to 30 µM | 
COc1ccc(C[C@H]2NC[C@H](O)[C@H]2OC(=O)NCc2ccnc(N)c2)cc1 [V187988, (2R,3S,4S)-4-hydroxy-2-[(4-methoxyphenyl)methyl]pyrrolidin-3-yl N-[(2-aminopyridin-4-yl)methyl]carbamate] | < 10 µM | < 10 µM | < 10 µM | 0.25 to 1 µM | 1 to 4 µM | 0.25 to 1 µM | 0.25 to 1 µM | 0.25 to 1 µM | 0.25 to 1 µM | < 10 µM | IC50 (HEPG2): ≥ 4 µM
